What was measured:
NBS1 [1] = experiment: NBS1 mRNA levels by real-time PCR in HCT116 cells; format: cell-based, human; conditions: siRNA, hypoxia 1% O2 16 h
Procedure: HCT116 TP53^+/+, HCT116 TP53^−/− cells (Koshiji et al., 2004), and U-2 OS were grown in McCoy's 5A medium (Invitrogen), and HeLa cells in DMEM. For hypoxic treatment, cells were incubated in a hypoxic chamber (Innova CO-48, New Brunswick Scientific) maintaining 1% O2 and 5% CO2. Recombinant adenovirus generation and infection were as previously described (Koshiji et al., 2004).
Total RNA extraction, reverse transcription, and quantitative PCR were performed essentially as described previously (Koshiji et al., 2005). Taqman Gene Expression Assay kits for NBS1, MRE11A, RAD50, MSH2, and ACTB were purchased from Applied Biosystems. All experiments were repeated three times in triplicates, and representative results were presented as means±standard errors.

CDC25A promoter = experiment: CDC25A reporter (luciferase) assay in HCT116 cells; format: cell-based, human; conditions: hypoxia
Procedure: Reporter Assay. Reporter assays were conducted as described previously (Huang et al. 2002). The Myc effect on the reporter was examined by cotransfection with 0.4 μg pMyc (Koshiji et al. 2004a) or as specified.

CDC25A = CDC25A and PGK1 mRNA by real-time RT-PCR in siRNA-transfected HCT116 cells; format: cell-based, human; conditions: siRNA 24 h then hypoxia 16 h
Procedure: Real-Time RT-PCR. Real-time RT-PCR was performed essentially as described previously (Koshiji et al. 2005). Primer and probe (Applied Biosystems) sequences were as follows: CDC25A, forward 5′-[…]-3′ (SEQ ID NO: 25), reverse 5′-[…]-3′ (SEQ ID NO: 26), probe 5′-FAM-[…]-MGB-3′ (SEQ ID NO: 27). PGK-1 (FAM-MGB probe) and ACTB (VIC-MGB probe) were detected with endogenous control reagents from Applied Biosystems. β-actin primers and probe were included into each reaction for normalization. All the experiments were repeated three times in triplicate, and representative results were presented in mean±standard error.
(§1) RNA Interference. Transfection with siRNA duplexes and siRNA sequence information were described previously (Koshiji et al. 2005). CHK1 siRNA was described previously (Zhao et al. 2002). Luciferase siRNA was used as negative control.

HIF-2α = experiment: Western blot after siRNA transfection of HCT116 cells; format: cell-based, human
Procedure: (§2) Western Blot. Western blot analysis was carried out as described previously.
as §1

HIF-1α = experiment: as above; format: cell-based, human
Procedure: as §2, §1

HCT116 cells = experiment: Matrigel invasion; format: cell-based, human; conditions: retrovirally infected HCT116 cells, 24 h
Procedure: (§3) A, retrovirally infected HCT116 cells expressing EYFP, HIF-1α PAS-B, and mutant were assayed for Matrigel invasion. Images of cells on the membrane side were taken 24 h later. B, U-2 OS cells infected as above were assayed for anchorage-independent growth on soft agar. HIF-1α PAS-B expressed cells gave rise to formation of colonies 40 times more than others. HCT116 cells (known to grow on soft agar) were used as a positive control. Mock, uninfected cells.

NBS1 [2] = experiment: NBS1 protein levels by immunoblot in U-2 OS cells expressing PAS-B variants; format: cell-based; conditions: forced expression in U-2 OS cells
Procedure: Immunoprecipitations and Western blot was performed essentially as described previously (Huang et al., 1998; Koshiji et al., 2005). In vitro translation and immunoprecipitations are described as before (Gu et al., 2001; Koshiji et al., 2005). The wheat germ extract system was purchased from Promega. λ protein phosphatase (New England Biolabs) and resveratrol (Sigma) with indicated concentrations were added to the in vitro translated products before immunoprecipitations.
U-2 OS cells were transfected with the Nucleofector system (Amaxa). Briefly, 1×10^6 cells were suspended in 100 μl pre-warmed Nucleofector Solution Kit V containing 2 μg plasmids. After electroporation the cells were transferred immediately into pre-warmed complete McCoy's 5A medium and seeded in 6-well plates. Cells were harvested 48 h after transfection.

U-2 OS cells [3] = experiment: tumor formation in a xenografted mouse model; format: in vivo; conditions: athymic mice, subcutaneous injection of 1 million U-2 OS cells, within three weeks
Text: Female BALB/c-nu/nu mice were subjected to bilateral, subcutaneous injections in the back with 1 million of U-2 OS cells, or those expressing EYFP, HIF-1α PAS-B, or the HIF-1α PAS-B mutant. A total of ten mice were divided into two groups with one type of cells injected on one side and another on the other side.

Sp1 = target: T1, Sp1 (Oryctolagus cuniculus, UniProt G1SL61); experiment: anti-Sp1 immunoprecipitation of in vitro translated products; format: binding, rabbit; conditions: translated in rabbit reticulocyte lysate
T1 construct: from tissue; host or cells: rabbit reticulocyte lysate (in vitro translation system)
T1 sequence (G1SL61 1-788): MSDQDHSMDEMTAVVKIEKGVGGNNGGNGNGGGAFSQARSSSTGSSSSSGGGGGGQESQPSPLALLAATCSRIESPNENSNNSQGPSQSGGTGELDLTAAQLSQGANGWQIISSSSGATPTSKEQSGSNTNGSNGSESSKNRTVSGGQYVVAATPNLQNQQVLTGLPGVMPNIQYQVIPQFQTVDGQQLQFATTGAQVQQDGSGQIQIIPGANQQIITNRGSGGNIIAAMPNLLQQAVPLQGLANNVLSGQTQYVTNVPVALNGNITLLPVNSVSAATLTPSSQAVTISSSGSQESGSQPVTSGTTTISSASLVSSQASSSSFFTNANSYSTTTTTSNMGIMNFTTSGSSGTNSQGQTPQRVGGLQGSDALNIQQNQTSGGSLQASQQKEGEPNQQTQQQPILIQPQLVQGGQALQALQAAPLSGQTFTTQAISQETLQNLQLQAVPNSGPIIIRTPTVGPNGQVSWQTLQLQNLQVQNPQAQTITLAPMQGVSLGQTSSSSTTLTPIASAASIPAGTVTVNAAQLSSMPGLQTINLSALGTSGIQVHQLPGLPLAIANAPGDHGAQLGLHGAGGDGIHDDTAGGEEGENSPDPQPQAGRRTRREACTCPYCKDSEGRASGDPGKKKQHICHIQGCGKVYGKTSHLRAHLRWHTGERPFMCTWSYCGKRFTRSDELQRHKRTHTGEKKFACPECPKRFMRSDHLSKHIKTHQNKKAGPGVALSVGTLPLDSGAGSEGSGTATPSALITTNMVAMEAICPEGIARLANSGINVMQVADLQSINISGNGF
Procedure: Previously, it was shown that Myc displacement is mediated by the N-terminal HIF-1α (1-329), which competes with Myc for Sp1 binding in the MSH2 promoter (Koshiji et al, 2005). […] […] […] Of note, removal of part of the PAS-B from the C terminus (codon 299-329) destroyed Sp1 binding.
Immunoprecipitations and Western blot was performed essentially as described previously (Huang et al., 1998; Koshiji et al., 2005). In vitro translation and immunoprecipitations are described as before (Gu et al., 2001; Koshiji et al., 2005). […]

β-catenin = experiment: immunoblotting of epithelial marker in retrovirally infected U-2 OS cells; format: cell-based
Procedure: A, Cells as indicated were infected by retroviruses expressing EYFP, EYFP-PAS-B fusion, and EYFP-PAS-B mutant. […] B, U-2 OS and those infected with retroviruses as above were analyzed by immunoblotting individual protein expression as indicated.

U-2 OS cells [4] = experiment: immunofluorescent staining of γ-H2AX foci (DNA DSBs); format: cell-based; conditions: U-2 OS cells transiently expressing PAS-B variants
Procedure: To ascertain the functional relevance of NBS1 repression by hypoxia, the extent of DNA damage was assessed by immunofluorescent staining of γ-H2AX foci, a most sensitive method for quantifying DNA DSBs (Rogakou et al, 1998, 1999). […] Furthermore, results also show strikingly colocalized foci of γ-H2AX and 53BP1, the latter of which is known to interact with various DNA repair proteins including γ-H2AX in response to DSBs (Schultz et al, 2000). Thus, hypoxic cells experience DNA DSBs, presumably resulting from the NBS1 repression.
Immunofluorescence staining was performed essentially as described previously (Rogakou et al, 1999) with mouse anti-γ-H2AX antibody (Upstate) and rabbit anti-53BP1 (Novus Biologicals). Secondary antibodies were anti-mouse Alexa-546 and anti-rabbit Alexa-488 (Molecular Probes). Samples were mounted in antifade media, and were examined by fluorescent and laser-scanning confocal microscopy with a Nikon PCM 2000.

U-2 OS cells [5] = experiment: anchorage-independent growth on soft agar; format: cell-based; conditions: retrovirally infected U-2 OS cells
Procedure: as §3

[6] = target: synthetic peptide corresponding to HIF-1α residues 299-329
[7] = target: synthetic peptide harboring HIF-2α T324V mutation
[8] = target: synthetic peptide including HIF-2α residues 314-331

## 5′-AACTGATGACCAGCAACTTGA-3′ [HIF1A siRNA]
NBS1 [1]
  effect on NBS1 and MSH2 downregulation and PGK1 upregulation in hypoxic cells: abrogated
CDC25A promoter
  hypoxic inhibition of CDC25A reporter expression: abrogated
CDC25A
  effect on hypoxic CDC25A down-regulation and PGK1 up-regulation: effectively blocked the CDC25A down-regulation
HIF-2α
  HIF-2α levels: remained unaffected
HIF-1α
  decrease of HIF-1α protein levels: > 80%

## PAS1B: HIF-1α PAS-B domain (codon 194-329)
HCT116 cells
  invasiveness versus controls: much more invasive
NBS1 [2]
  NBS1 protein levels: sufficient to eliminate NBS1 protein levels
U-2 OS cells [3]
  tumor nodules formation: formed tumor nodules
Sp1
  Sp1 binding: sufficient for Sp1 interaction
β-catenin
  β-catenin protein expression: marked decrease
U-2 OS cells [4]
  γ-H2AX foci colocalized with 53BP1: significantly increased
U-2 OS cells [5]
  formation of colonies on soft agar relative to others: 40 times

## 5′-AACAGCATCTTTGATAGCAGT-3″ [EPAS1 siRNA]
NBS1 [1]
  effect on NBS1 and MSH2 downregulation and PGK1 upregulation in hypoxic cells: no obvious effects
CDC25A
  effect on hypoxic CDC25A down-regulation and PGK1 up-regulation: no obvious effects
HIF-2α
  HIF-2α levels: reduced specifically

B1: recombinant PKD1 (Upstate Biotechnology) (protein)
chain: MSAPPVLRPPSPLLPVAAAAAAAAAALVPGSGPGPAPFLAPVAAPVGGISFHLQIGLSREPVLLLQDSSGDYSLAHVREMACSIVDQKFPECGFYGMYDKILLFRHDPTSENILQLVKAASDIQEGDLIEVVLSASATFEDFQIRPHALFVHSYRAPAFCDHCGEMLWGLVRQGLKCEGCGLNYHKRCAFKIPNNCSGVRRRRLSNVSLTGVSTIRTSSAELSTSAPDEPLLQKSPSESFIGREKRSNSQSYIGRPIHLDKILMSKVKVPHTFVIHSYTRPTVCQYCKKLLKGLFRQGLQCKDCRFNCHKRCAPKVPNNCLGEVTINGDLLSPGAESDVVMEEGSDDNDSERNSGLMDDMEEAMVQDAEMAMAECQNDSGEMQDPDPDHEDANRTISPSTSNNIPLMRVVQSVKHTKRKSSTVMKEGWMVHYTSKDTLRKRHYWRLDSKCITLFQNDTGSRYYKEIPLSEILSLEPVKTSALIPNGANPHCFEITTANVVYYVGENVVNPSSPSPNNSVLTSGVGADVARMWEIAIQHALMPVIPKGSSVGTGTNLHRDISVSISVSNCQIQENVDISTVYQIFPDEVLGSGQFGIVYGGKHRKTGRDVAIKIIDKLRFPTKQESQLRNEVAILQNLHHPGVVNLECMFETPERVFVVMEKLHGDMLEMILSSEKGRLPEHITKFLITQILVALRHLHFKNIVHCDLKPENVLLASADPFPQVKLCDFGFARIIGEKSFRRSVVGTPAYLAPEVLRNKGYNRSLDMWSVGVIIYVSLSGTFPFNEDEDIHDQIQNAAFMYPPNPWKEISHEAIDLINNLLQVKMRKRYSVDKTLSHPWLQDYQTWLDLRELECKIGERYITHESDDLRWEKYAGEQGLQYPTHLINPSASHSDTPETEETEMKALGERVSIL
[6]
  PKD1-mediated phosphorylation in an in vitro kinase assay (c.p.m.): a HIF-2α peptide, but not its HIF-1α counterpart, was robustly phosphorylated
[7]
  PKD1-mediated phosphorylation in an in vitro kinase assay (c.p.m.): replacement of Thr-324 with valine abolished phosphorylation
[8]
  PKD1-mediated phosphorylation in an in vitro kinase assay (c.p.m.): a HIF-2α peptide, but not its HIF-1α counterpart, was robustly phosphorylated
